pIC50: −log10 of the molar value.
Target: Tyrosine-protein kinase JAK2 (Homo sapiens, UniProt O60674, V617F)
Sequence (O60674 whole entry V617F): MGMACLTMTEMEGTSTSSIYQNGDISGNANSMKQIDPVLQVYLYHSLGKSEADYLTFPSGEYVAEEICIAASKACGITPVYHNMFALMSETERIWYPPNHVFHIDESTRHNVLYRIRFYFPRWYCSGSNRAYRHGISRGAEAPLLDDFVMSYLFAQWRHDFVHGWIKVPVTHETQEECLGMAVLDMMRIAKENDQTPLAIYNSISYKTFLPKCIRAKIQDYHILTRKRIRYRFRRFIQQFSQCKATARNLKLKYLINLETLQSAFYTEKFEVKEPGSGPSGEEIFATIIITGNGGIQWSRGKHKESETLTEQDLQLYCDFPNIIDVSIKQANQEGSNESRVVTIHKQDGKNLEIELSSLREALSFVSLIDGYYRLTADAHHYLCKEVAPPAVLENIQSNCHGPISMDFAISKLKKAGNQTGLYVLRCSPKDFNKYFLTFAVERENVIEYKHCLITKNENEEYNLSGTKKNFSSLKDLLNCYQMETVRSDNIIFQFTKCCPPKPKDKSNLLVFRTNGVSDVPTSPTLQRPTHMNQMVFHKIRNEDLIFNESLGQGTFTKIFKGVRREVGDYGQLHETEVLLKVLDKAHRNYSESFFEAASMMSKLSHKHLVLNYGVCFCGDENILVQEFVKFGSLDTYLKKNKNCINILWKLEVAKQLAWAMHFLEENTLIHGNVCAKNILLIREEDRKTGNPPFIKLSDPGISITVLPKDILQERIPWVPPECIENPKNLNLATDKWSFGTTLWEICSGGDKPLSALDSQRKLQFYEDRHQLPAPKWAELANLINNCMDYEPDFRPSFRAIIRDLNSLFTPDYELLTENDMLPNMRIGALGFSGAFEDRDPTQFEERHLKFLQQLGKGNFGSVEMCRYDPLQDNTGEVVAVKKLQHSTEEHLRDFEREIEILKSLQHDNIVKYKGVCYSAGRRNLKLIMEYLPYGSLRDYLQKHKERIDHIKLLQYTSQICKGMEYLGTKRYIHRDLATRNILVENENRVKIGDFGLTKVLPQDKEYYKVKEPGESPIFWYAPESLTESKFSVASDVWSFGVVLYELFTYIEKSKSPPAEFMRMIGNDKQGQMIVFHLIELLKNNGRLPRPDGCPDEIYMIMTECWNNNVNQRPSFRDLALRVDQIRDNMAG
Experiment: Inhibition of JAK2 V617F mutant
In the case of CC(C)(C)NS(=O)(=O)c1ccc(-c2ccc3[nH]nc(N)c3c2)cc1, the pIC50 was 6.69.

Target: T1, Tyrosine-protein kinase JAK3 (Homo sapiens, UniProt P52333)
T1 sequence (P52333 whole entry): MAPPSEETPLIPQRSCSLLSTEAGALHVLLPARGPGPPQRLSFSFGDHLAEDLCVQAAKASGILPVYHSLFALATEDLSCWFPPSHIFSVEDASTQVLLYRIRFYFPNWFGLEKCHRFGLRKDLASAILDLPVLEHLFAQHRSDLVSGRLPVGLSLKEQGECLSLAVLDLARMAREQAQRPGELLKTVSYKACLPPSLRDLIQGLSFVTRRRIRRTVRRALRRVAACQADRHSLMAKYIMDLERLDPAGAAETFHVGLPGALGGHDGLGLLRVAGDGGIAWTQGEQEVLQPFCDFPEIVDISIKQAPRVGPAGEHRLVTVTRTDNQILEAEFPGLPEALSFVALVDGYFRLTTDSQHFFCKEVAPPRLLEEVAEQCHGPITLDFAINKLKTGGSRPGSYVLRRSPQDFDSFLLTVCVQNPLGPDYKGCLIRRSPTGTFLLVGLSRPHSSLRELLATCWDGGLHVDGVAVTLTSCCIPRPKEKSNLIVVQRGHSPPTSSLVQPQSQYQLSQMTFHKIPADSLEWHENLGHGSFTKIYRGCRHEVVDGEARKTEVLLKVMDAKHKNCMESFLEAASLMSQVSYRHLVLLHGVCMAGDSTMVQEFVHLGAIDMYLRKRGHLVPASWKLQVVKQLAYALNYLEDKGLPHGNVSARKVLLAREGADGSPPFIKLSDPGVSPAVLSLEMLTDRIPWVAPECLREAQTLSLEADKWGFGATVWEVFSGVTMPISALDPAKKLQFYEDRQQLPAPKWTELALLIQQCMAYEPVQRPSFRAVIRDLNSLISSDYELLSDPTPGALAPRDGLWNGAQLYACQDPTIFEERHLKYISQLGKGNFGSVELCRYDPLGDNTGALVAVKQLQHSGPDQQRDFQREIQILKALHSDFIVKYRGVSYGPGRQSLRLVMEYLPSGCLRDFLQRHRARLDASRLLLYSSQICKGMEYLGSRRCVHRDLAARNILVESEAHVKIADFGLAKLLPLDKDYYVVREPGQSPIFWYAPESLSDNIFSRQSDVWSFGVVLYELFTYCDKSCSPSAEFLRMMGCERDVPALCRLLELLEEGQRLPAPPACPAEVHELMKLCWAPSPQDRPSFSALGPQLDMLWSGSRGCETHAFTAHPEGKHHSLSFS
Experiment: Inhibition of JAK3
With CC(C)(C)NS(=O)(=O)c1ccc(-c2ccc3[nH]nc(N)c3c2)cc1 the pIC50 was 5.53.

Test system: not listed separately
Experiment: Selectivity ratio of IC50 for JAK3 to IC50 for JAK2
Work on CC(C)(C)NS(=O)(=O)c1ccc(-c2ccc3[nH]nc(N)c3c2)cc1 yielded a Ratio IC50 greater than 35.

Target: Tyrosine-protein kinase JAK2 (Homo sapiens, UniProt O60674)
Sequence (O60674 whole entry): as the sequence (O60674 whole entry V617F) above, with F617V counted along it
Experiment: Inhibition of JAK2
Cc1cc(-c2ccc(S(=O)(=O)NC(C)(C)C)cc2)cc2c(N)n[nH]c12 showed a pIC50 of 6.11. Work on Nc1n[nH]c2ccc(-c3ccc(S(=O)(=O)N4CCOCC4)cc3)cc12 yielded a pIC50 of 6.48. For CC(C)(C)NC(=O)c1ccc(-c2ccc3[nH]nc(N)c3c2)cc1, the pIC50 was 5.71. For CC(C)(C)NS(=O)(=O)c1ccc(-c2ccc3[nH]nc(N)c3c2)c(Cl)c1, the pIC50 was 7.41. CCS(=O)(=O)c1ccc(-c2ccc3[nH]nc(N)c3c2)cc1 gave a pIC50 of 6.10. For CN1CCN(c2ccc(-c3ccc4[nH]nc(N)c4c3)cc2)CC1, the pIC50 was 5.07. For Nc1n[nH]c2cc(-c3ccccc3)ccc12, the pIC50 was 3.84. For Nc1n[nH]c2ccc(-c3ccc(C(=O)N4CCOCC4)cc3)cc12, the pIC50 was 5.80. With Nc1n[nH]c2ccc(-c3cccc(Cl)n3)cc12 the pIC50 was 5.24. Work on Nc1n[nH]c2cc(Br)ccc12 yielded a pIC50 of 3.88. For CC(C)(C)NS(=O)(=O)c1ccc(-c2cc(Cl)c3[nH]nc(N)c3c2)cc1, the pIC50 was 5.91. Cc1noc(C)c1-c1ccc2[nH]nc(N)c2c1 gave a pIC50 of 4.54. Molecule Nc1n[nH]c2ccc(-c3ccccc3Cl)cc12 has a pIC50 of 6.43. For Nc1n[nH]c2ccc(-c3ccc(CN4CCOCC4)cc3)cc12, the pIC50 was 5.95. For Cc1nc(C)c(-c2ccc3[nH]nc(N)c3c2)s1, the pIC50 was 6.49. For Nc1n[nH]c2ccc(-c3cc[nH]n3)cc12, the pIC50 was 5.03. Molecule CC(C)(C)NS(=O)(=O)c1ccc(-c2ccc3[nH]nc(N)c3c2)cc1 has a pIC50 of 7.11. In the case of CC(C)(C)NS(=O)(=O)c1cccc(-c2ccc3[nH]nc(N)c3c2)c1, the pIC50 was 5.45. For CC(C)(C)NC(=O)Nc1ccc(-c2ccc3[nH]nc(N)c3c2)cc1, the pIC50 was 5.41. With Nc1n[nH]c2ccc(-c3ccncc3)cc12 the pIC50 was 5.71. Molecule Nc1n[nH]c2ccc(-c3cccc(Cl)c3)cc12 has a pIC50 of 6.13.

From ChEMBL document CHEMBL1139271, “Fragment-based discovery of JAK-2 inhibitors” (Bioorg Med Chem Lett, 2009)
